In article PMC11818082, “2-{N-[ω-(1-Benzylpiperidin-4-yl)alkyl]amino}-6-[(prop-2-yn-1-yl)amino]pyridine-3,5-dicarbonitriles Showing High Affinity for σ1/2 Receptors” (International Journal of Molecular Sciences, 2025):
Where “and” joins values, the source holds several entries; their conditions need not be identical. Equal entries are not always repeated. Where two headings read alike, the source gives them in different places.

Tests used:
human MAO B = system: human MAO B; design: method as in earlier work; conditions: cited from earlier work
eqBuChE = conditions: cited from earlier work; for IC50: read-out: IC50 BuChE
human σ1R = biological target: T1, human σ1R (Homo sapiens, UniProt Q99720); experiment: hσ1R competitive radioligand binding assay; conditions: for Selectivity Index of Rat σ2R/Human σ1R: Ki rat σ2R/Ki hσ1R
T1 construct: expressed in transfected cells; host or cells: HEK293 (provided by Olivier Soriani, Université de Nice Sophia-Antipolis)
T1 sequence (Q99720 whole entry): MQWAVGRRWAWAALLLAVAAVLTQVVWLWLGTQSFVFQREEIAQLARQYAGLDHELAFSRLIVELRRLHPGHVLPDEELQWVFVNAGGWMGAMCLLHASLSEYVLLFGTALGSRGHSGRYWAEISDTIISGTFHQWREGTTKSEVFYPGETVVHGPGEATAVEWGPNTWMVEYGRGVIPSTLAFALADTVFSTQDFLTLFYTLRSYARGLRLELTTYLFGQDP
Procedure: The hσ1R competitive binding assay was performed as previously reported. In brief, radioligand competition experiments were performed using preparations from HEK293 cells stably transfected with human σ1R cells (provided by Olivier Soriani, Université de Nice Sophia-Antipolis, Nice, France). The binding of the σ1R specific radioligand (+)-[^3H]pentazocine (1.051 TBq/mmol; PerkinElmer LAS GmbH, Rodgay, Germany) was measured at equilibrium in the presence of the test compounds at different concentrations (10 mM stock solutions in DMSO; final concentrations 10^−5–10^−11 M, 0.1 % DMSO) in TRIS buffer at pH 7.4 (50 mM TRIS-HCl, 120 mM NaCl, 5 mM KCl, 2 mM CaCl2, 1 mM MgCl2). Total binding was measured without the addition of a competitor, and non-specific binding was measured with 10 µM haloperidol as the competitor. The vials were incubated at room temperature (rt) (~21 °C) at 300 rpm. The incubation was terminated after 60 min by vacuum filtration using Whatman® GF/B glass-fiber filtermats (#FPD-100, Brandel Inc., Gaithersburg, MD, USA), soaked with freshly prepared 0.3% polyethyleneimine, using a 48-well harvester (Brandel Inc., Gaithersburg, MD, USA). Filters were washed four times with cold buffer (50 mM TRIS-HCl, pH 7.4 at 4 °C) and placed in scintillation vials. In total, 3 mL of a liquid scintillation cocktail (Ultima Gold TM; PerkinElmer, Waltham, MA, USA) was filled in each vial, and the vials were shaken at rt at 375 rpm for 120 min. Filter-bound radioactivity was measured in a Hidex 600 SL liquid scintillation counter (Hidex, Turku, Finnland). By performing nonlinear regression analysis of the binding curves (GraphPad Prism 3.0, GraphPad Software, Inc., La Jolla, CA, USA), the IC50 values were obtained, and the equilibrium inhibition constants Ki were calculated according to the Cheng–Prusoff equation [36], using the in-house determined equilibrium dissociation constant KD of 33 nM (+)-[^3H]pentazocine. Each test compound was measured in 2–3 independent experiments, each performed in triplicate.

rat σ2R = biological target: T2, rat σ2R (Rattus norvegicus, UniProt Q5U3Y7); experiment: σ2R competitive radioligand binding assay (rat liver membranes)
T2 construct: The thawed membrane preparation of rat liver (about 100 µg of protein) was incubated; from tissue; host or cells: rat liver membranes
T2 sequence (Q5U3Y7 1-176): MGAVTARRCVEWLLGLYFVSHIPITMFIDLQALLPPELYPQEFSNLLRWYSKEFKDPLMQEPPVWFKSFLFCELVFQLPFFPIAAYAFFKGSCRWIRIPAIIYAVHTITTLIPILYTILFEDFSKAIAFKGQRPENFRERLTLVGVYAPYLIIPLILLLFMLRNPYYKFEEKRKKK
Procedure: Two rat livers were cut into small pieces and homogenized using a potter [Elvehjem Potter (B. Braun Biotech International, Melsungen, Germany); 500–800 rpm, 10 up-and-down strokes] in 6 volumes of cold 0.32 M sucrose. The suspension was centrifuged at 1200× g for 10 min at 4 °C. The supernatant was separated and centrifuged at 31,000× g for 20 min at 4 °C. The pellet was resuspended in 5–6 volumes of buffer (50 mM TRIS, pH 8.0) and incubated at rt for 30 min. After the incubation, the suspension was centrifuged again at 31,000× g for 20 min at 4 °C. The final pellet was resuspended in 5–6 volumes of buffer and stored at −80 °C in 1.5 mL portions containing about 2 mg of protein/mL.
The stock solution of the respective test compound (10 mM in DMSO) was diluted with the assay buffer to obtain the required test solutions for the assay. All binding experiments were carried out in duplicates in 96-well multiplates. The concentrations given are the final concentrations in the assay. The assays were performed with the radioligand [^3H]-DTG (specific activity 50 Ci/mmol; ARC, St. Louis, MO, USA). The thawed membrane preparation of rat liver (about 100 µg of protein) was incubated with various concentrations of the test compound, 3 nM [^3H]-DTG, and a buffer containing (+)-pentazocine (500 nM (+)-pentazocine in 50 mM TRIS, pH 8.0) at rt. The non-specific binding was determined with 10 μM non-labeled DTG. The Kd value of [^3H]-DTG is 17.9 nM [43].
Generally, the assays were performed by adding 50 µL of the respective assay buffer and 50 µL of the test compound solution in various concentrations (10^−5, 10^−6, 10^−7, 10^−8, 10^−9, and 10^−10 mol/L), 50 µL of the corresponding radioligand solution, and 50 µL of the respective receptor preparation into each well of the multiplate (total volume 200 µL). The receptor preparation was added last. During the incubation, the multiplates were shaken at a speed of 500−600 rpm at rt. The assays were terminated after 120 min by rapid filtration using the harvester (MicroBeta FilterMate 96; PerkinElmer LAS, Rodgau, Germany) equipped with filtermats presoaked in 0.5% aqueous polyethylenimine solution for 2 h at rt before use. During the filtration, each well was washed five times with 300 µL of water. Subsequently, the filtermats were dried at 95 °C. The solid scintillator (Meltilex; PerkinElmer LAS, Rodgau, Germany) was melted on the dried filtermats at a temperature of 95 °C for 5 min. After solidifying the scintillator at rt, the trapped radioactivity in the filtermats was measured with the scintillation analyzer (MicroBeta Trilux; PerkinElmer LAS, Rodgau, Germany). Each position on the filtermat corresponds to one well of the multiplate and was measured for 5 min with the [^3H]-counting protocol. The overall counting efficiency was 20%. The IC50 values were calculated with the program GraphPad Prism® 3.0 (GraphPad Software, San Diego, CA, USA) by nonlinear regression analysis. Subsequently, the IC50 values were transformed into Ki values using the equation of Cheng and Prusoff. The Ki values are given as the mean value ± SEM from three independent experiments.

EeAChE = conditions: cited from earlier work
human MAO A = conditions: cited from earlier work
gpσ1R = gpσ1R (Cavia porcellus, UniProt Q60492); experiment: gpσ1R affinity; type: binding
Sequence of gpσ1R (Q60492 whole entry): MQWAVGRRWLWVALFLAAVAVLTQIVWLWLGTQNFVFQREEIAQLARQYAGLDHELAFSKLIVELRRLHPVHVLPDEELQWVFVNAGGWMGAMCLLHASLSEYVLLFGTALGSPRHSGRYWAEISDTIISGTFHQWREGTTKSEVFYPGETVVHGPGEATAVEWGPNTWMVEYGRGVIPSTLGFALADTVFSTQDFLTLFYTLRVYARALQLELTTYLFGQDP

[1] = membrane preparations of HEK-293 cells stably transfected with hσ1R, radioligand (+)-[3H]pentazocine, two experiments: mean (individual values), three or more: mean ± SD, read-out: Ki Human σ1R
[2] = rat liver membrane preparations, radioligand [3H]ditolylguanidine, (+)-pentazocine to mask σ1R, mean ± SEM, read-out: Ki Rat σ2R

SMILES: C#CCNc1nc(NC2CCN(Cc3ccccc3)CC2)c(C#N)cc1C#N [Compound 1]
- IC50 MAO B (human MAO B): n.i.
- IC50 BuChE (eqBuChE; eqBuChE): n.i.
- Ki (human σ1R): 29.2 nM
- Selectivity Index of Rat σ2R/Human σ1R (human σ1R): 5.9
- Ki (rat σ2R): 173 nM
- IC50 (EeAChE): 530 ± 70 nM
- IC50 MAO A (human MAO A): n.i.

SMILES: C#CCNc1nc(NCCC2CCN(Cc3ccccc3)CC2)c(C#N)cc1C#N [Compound 2]
- IC50 MAO B (human MAO B): n.i.
- IC50 BuChE (eqBuChE; eqBuChE): n.i.
- Ki (human σ1R): 7.57 ± 0.59 nM
- Selectivity Index of Rat σ2R/Human σ1R (human σ1R): 5.6
- Ki (rat σ2R): 42 ± 8 nM
- IC50 (EeAChE): 16 ± 2 nM
- IC50 MAO A (human MAO A): n.i.

SMILES: C#CCNc1nc(NCCCC2CCN(Cc3ccccc3)CC2)c(C#N)cc1C#N [Compound 3]
- IC50 MAO B (human MAO B): n.i.
- IC50 (eqBuChE; eqBuChE): 2030 ± 370 nM
- Ki (human σ1R): ~3 nM and 2.97 nM
- Selectivity Index of Rat σ2R/Human σ1R (human σ1R): 13
- Ki (rat σ2R): 37 ± 5 nM
- IC50 (EeAChE): 4.7 ± 0.5 nM
- IC50 MAO A (human MAO A): n.i.

SMILES: C#CCNc1nc(NCCCCC2CCN(Cc3ccccc3)CC2)c(C#N)cc1C#N [Compound 4]
- IC50 MAO B (human MAO B): n.i.
- IC50 (eqBuChE; eqBuChE): 530 ± 60 nM
- Selectivity Index of Rat σ2R/Human σ1R (human σ1R): 41
- Ki (human σ1R; [1]): 3.97 ± 0.66 nM
- Ki (rat σ2R; [2]): 163 ± 50 nM
- IC50 (EeAChE): 1.3 ± 0.3 nM
- IC50 MAO A (human MAO A): n.i.

SMILES: C#CCN(C)c1nc(NCCC2CCN(Cc3ccccc3)CC2)c(C#N)cc1C#N [Compound 5, 2-{[2-(1-benzylpiperidin-4-yl)ethyl]amino}-6-[methyl(prop-2-yn-1-yl)amino]pyridine-3,5-dicarbonitrile]
- IC50 MAO B (human MAO B): n.i.
- IC50 (eqBuChE; as given in the text): 3100 nM
- Ki (human σ1R): 1.45 ± 0.43 nM
- Selectivity Index of Rat σ2R/Human σ1R (human σ1R): 270
- fold higher affinity for hσ1R than the standards NE-100 and PB2 (human σ1R; compared with the standards): ~1.3 fold
- Ki (rat σ2R): 389 nM
- IC50 (EeAChE): 13 nM
- IC50 MAO A (human MAO A): n.i.
- Ki (gpσ1R): 2.9 nM

SMILES: C#CCN(C)c1nc(NCCCC2CCN(Cc3ccccc3)CC2)c(C#N)cc1C#N [Compound 6]
- IC50 MAO B (human MAO B): n.i.
- IC50 (eqBuChE; eqBuChE): 1120 ± 160 nM
- Ki (human σ1R): ~3 nM and 3.05 nM
- Selectivity Index of Rat σ2R/Human σ1R (human σ1R): 42
- Ki (rat σ2R): 129 ± 26 nM
- IC50 (EeAChE): 6.2 ± 1.4 nM
- IC50 (human MAO A): 6110 ± 1400 nM

SMILES: C#CCN(C)c1nc(NCCCCC2CCN(Cc3ccccc3)CC2)c(C#N)cc1C#N [Compound 7]
- IC50 MAO B (human MAO B): n.i.
- IC50 (eqBuChE; eqBuChE): 600 ± 80 nM
- Ki (human σ1R; [1]): ~3 nM and 3.09 nM
- Ki (rat σ2R; [2]): 288 nM
- IC50 (EeAChE): 1.1 ± 0.3 nM

SMILES: C#CCNc1nc(NC2CCN(Cc3ccccc3)CC2)c(C#N)c(-c2ccccc2)c1C#N [Compound 8]
- IC50 MAO B (human MAO B): n.i.
- IC50 BuChE (eqBuChE; eqBuChE): n.i.
- Ki (human σ1R): 27.3 nM
- Selectivity Index of Rat σ2R/Human σ1R (human σ1R): 5.2
- Ki (rat σ2R): 141 nM
- IC50 (EeAChE): 4000 ± 100 nM
- IC50 (human MAO A): 25 ± 1 nM

SMILES: C#CCNc1nc(NCCCC2CCN(Cc3ccccc3)CC2)c(C#N)c(-c2ccccc2)c1C#N [Compound 9]
- IC50 MAO B (human MAO B): n.i.
- IC50 BuChE (eqBuChE; eqBuChE): n.i.
- Ki (human σ1R): 7.45 ± 4.32 nM
- Selectivity Index of Rat σ2R/Human σ1R (human σ1R): 14
- Ki (rat σ2R): 104 ± 22 nM
- IC50 (EeAChE): 19 ± 5 nM
- IC50 MAO A (human MAO A): n.i.

SMILES: C#CCNc1nc(NCCCCC2CCN(Cc3ccccc3)CC2)c(C#N)c(-c2ccccc2)c1C#N [Compound 10]
- IC50 MAO B (human MAO B): n.i.
- IC50 (eqBuChE; eqBuChE): 840 ± 100 nM
- Selectivity Index of Rat σ2R/Human σ1R (human σ1R): 2.5
- Ki (human σ1R; [1]): 15.4 nM
- Ki (rat σ2R; [2]): 39 nM
- IC50 (EeAChE): 1.7 ± 0.3 nM
- IC50 MAO A (human MAO A): n.i.

SMILES: C#CCN(C)c1nc(NCC2CCN(Cc3ccccc3)CC2)c(C#N)c(-c2ccccc2)c1C#N [Compound 11, 2-{[(1-benzylpiperidin-4-yl)methyl]amino}-6-[methyl(prop-2-yn-1-yl)amino]-4-phenylpyridine-3,5-dicarbonitrile]
- IC50 MAO B (human MAO B): n.i.
- IC50 (eqBuChE; eqBuChE): 5000 ± 700 nM
- Ki (human σ1R): 119 nM
- Selectivity Index of Rat σ2R/Human σ1R (human σ1R): 0.46
- Ki (rat σ2R): 55 nM
- fold more affine for rat σ2R than for hσ1R (rat σ2R; Ki hσ1R vs Ki rat σ2R): 2 fold
- IC50 (EeAChE): 270 ± 52 nM
- IC50 MAO A (human MAO A): n.i.

SMILES: C#CCN(C)c1nc(NCCCC2CCN(Cc3ccccc3)CC2)c(C#N)c(-c2ccccc2)c1C#N [Compound 12]
- IC50 MAO B (human MAO B): n.i.
- IC50 (eqBuChE; eqBuChE): 230 ± 30 nM
- Ki (human σ1R): 10.9 ± 1.9 nM
- Selectivity Index of Rat σ2R/Human σ1R (human σ1R): 36
- Ki (rat σ2R): 393 nM
- IC50 (EeAChE): 14 ± 1 nM
- IC50 MAO A (human MAO A): n.i.
